Assay results published in patent publication US20200288710A1, “SUBSTITUTED SULPHONAMIDES FOR CONTROLLING ANIMAL PESTS” (BAYER CROPSCIENCE AKTIENGESELLSCHAFT, priority 2016, published 2020).

Tested on: Meloidogyne incognita
Assay: Meloidogyne incognita test
Format: in vivo
Conditions: 336 h, lettuce, after 14 days, read-out: nematicidal efficacy (formation of galls)
Protocol: Meloidogyne incognita Test Solvent: 125.0 parts by weight of acetone To produce a suitable active compound preparation, 1 part by weight of active compound is mixed with the stated amount of solvent and the concentrate is diluted with water to the desired concentration. Vessels are filled with sand, active compound solution, an egg/larvae suspension of the southern rootknot nematode (Meloidogyne incognita) and lettuce seeds. The lettuce seeds germinate and the plants develop. The galls develop on the roots. After 14 days, the nematicidal efficacy in % is determined by the formation of galls. 100% means that no galls were found; 0% means that the number of galls on the treated plants corresponds to the untreated control.

`CC(C)c1ccccc1S(=O)(=O)NC(=O)c1cn(C)c(-c2c(F)cccc2F)n1` [Example 359] was tested. Which pest or weed control at 20 ppm did it give?
Its pest or weed control at 20 ppm is 90%.

`COc1cccc(C(C)C)c1S(=O)(=O)NC(=O)c1cn(C)c(-c2c(F)cccc2F)n1` [Example 377] was tested. Which pest or weed control at 20 ppm did it give?
The pest or weed control at 20 ppm was 90%.

Which pest or weed control at 20 ppm does the source give for `O=C(NS(=O)(=O)c1ccccc1Cl)c1cc(-c2ccccc2Cl)n(-c2ncccc2Cl)n1` [Example 262] here?
Its pest or weed control at 20 ppm is 90%.

How did the pest or weed control at 20 ppm turn out when `CCc1[nH]c(-c2cccc(Cl)c2Cl)nc1C(=O)NS(=O)(=O)c1ccccc1C` [Example 260] was run?
The pest or weed control at 20 ppm was 100%.

`O=C(NS(=O)(=O)c1ccccc1Cl)c1cc(-c2ncccc2Cl)n(-c2ccccc2Cl)n1` [Example 264] was tested. Which pest or weed control at 20 ppm did it give?
Its pest or weed control at 20 ppm is 100%.

With `COc1ccc(Cl)c(S(=O)(=O)NC(=O)c2c(Cl)nc(-c3ccccc3Cl)n2C)c1` [Example 203] as the compound, how does the pest or weed control at 20 ppm read?
The pest or weed control at 20 ppm was 100%.

With `CCc1[nH]c(-c2cccc(Cl)c2)nc1C(=O)NS(=O)(=O)c1ccccc1C` [Example 129] as the compound, how does the pest or weed control at 20 ppm read?
The pest or weed control at 20 ppm was 90%.

Which pest or weed control at 20 ppm does the source give for `CC(C)S(=O)(=O)NC(=O)c1cn(C)c(-c2c(F)cccc2F)n1` [Example 85] here?
The pest or weed control at 20 ppm was 90%.

How did the pest or weed control at 20 ppm turn out when `CCc1[nH]c(-c2cccc(C)c2C)nc1C(=O)NS(=O)(=O)c1ccccc1Cl` [Example 472] was run?
The pest or weed control at 20 ppm was 90%.

`CCn1c(C(=O)NS(=O)(=O)c2ccccc2C)nc(-c2c(F)cccc2F)c1C` [Example 417] was tested. Which pest or weed control at 20 ppm did it give?
Its pest or weed control at 20 ppm is 100%.

For `Cn1cc(C(=O)NS(=O)(=O)c2ccccc2Cl)nc1-c1ccc(Cl)c(Cl)c1` [Example 535], which pest or weed control at 20 ppm is on record?
Its pest or weed control at 20 ppm is 100%.

Which pest or weed control at 20 ppm does the source give for `O=C(NS(=O)(=O)c1c(Cl)cccc1Cl)c1cc(-c2ccccc2Cl)n(-c2ncccc2Cl)n1` [Example 263] here?
Its pest or weed control at 20 ppm is 100%.

How did the pest or weed control at 20 ppm turn out when `Cc1cccc(C)c1S(=O)(=O)NC(=O)c1cc(-c2ncccc2Cl)n(-c2ccccc2Cl)n1` [Example 267] was run?
The pest or weed control at 20 ppm was 100%.

With `COc1ccccc1S(=O)(=O)NC(=O)c1cn(C)c(-c2ccncc2)n1` [Example 487] as the compound, how does the pest or weed control at 20 ppm read?
Its pest or weed control at 20 ppm is 90%.

How did the pest or weed control at 20 ppm turn out when `Cc1ccccc1S(=O)(=O)NC(=O)c1cn(C)c(-c2ccccc2C(C)C)n1` [Example 473] was run?
The pest or weed control at 20 ppm was 90%.

Which pest or weed control at 20 ppm does the source give for `COc1ccc(Cl)c(S(=O)(=O)NC(=O)c2nc(-c3ccccc3F)[nH]c2C)c1` [Example 627] here?
Its pest or weed control at 20 ppm is 90%.

For `COc1ccc(C(C)(C)C)cc1S(=O)(=O)NC(=O)c1cn(C)c(-c2c(F)cccc2F)n1` [Example 392], which pest or weed control at 20 ppm is on record?
Its pest or weed control at 20 ppm is 90%.

How did the pest or weed control at 20 ppm turn out when `Cc1cccc(C2CCCC2)c1S(=O)(=O)NC(=O)c1cn(C)c(-c2c(F)cccc2F)n1` [Example 362] was run?
Its pest or weed control at 20 ppm is 100%.

For `CCc1[nH]c(-c2c(F)cccc2F)nc1C(=O)NS(=O)(=O)c1cc(OC)ccc1Cl` [Example 246], which pest or weed control at 20 ppm is on record?
Its pest or weed control at 20 ppm is 90%.

With `Cn1c(-c2ccccc2Cl)nc(C(=O)NS(=O)(=O)c2ccccc2Cl)c1Br` [Example 580] as the compound, how does the pest or weed control at 20 ppm read?
Its pest or weed control at 20 ppm is 100%.

How did the pest or weed control at 20 ppm turn out when `Cc1ccccc1S(=O)(=O)NC(=O)c1cn(C)c(-c2ccc(F)c(F)c2)n1` [Example 545] was run?
The pest or weed control at 20 ppm was 100%.

With `CCc1[nH]c(-c2ccc(F)cc2F)nc1C(=O)NS(=O)(=O)c1cc(OC)ccc1Cl` [Example 244] as the compound, how does the pest or weed control at 20 ppm read?
The pest or weed control at 20 ppm was 90%.

How did the pest or weed control at 20 ppm turn out when `CC(C)Cc1ccc(S(=O)(=O)NC(=O)c2cn(C)c(-c3c(F)cccc3F)n2)cc1` [Example 287] was run?
Its pest or weed control at 20 ppm is 90%.

`Cc1[nH]c(-c2ccc(Cl)c(Cl)c2)nc1C(=O)NS(=O)(=O)c1ccccc1Cl` [Example 614] was tested. Which pest or weed control at 20 ppm did it give?
The pest or weed control at 20 ppm was 100%.

Which pest or weed control at 20 ppm does the source give for `Cc1[nH]c(-c2ccccc2F)nc1C(=O)NS(=O)(=O)c1ccccc1Cl` [Example 626] here?
Its pest or weed control at 20 ppm is 90%.

Which pest or weed control at 20 ppm does the source give for `CCNc1ccccc1S(=O)(=O)NC(=O)c1cn(C)c(-c2ccccc2Cl)n1` [Example 251] here?
Its pest or weed control at 20 ppm is 90%.

How did the pest or weed control at 20 ppm turn out when `Cc1cc(C(=O)NS(=O)(=O)c2ccccc2Br)nn1-c1ccccc1C(F)(F)F` [Example 292] was run?
The pest or weed control at 20 ppm was 90%.

`COc1ccccc1S(=O)(=O)NC(=O)c1cn(C)c(-c2cc(Cl)ccc2Cl)n1` [Example 527] was tested. Which pest or weed control at 20 ppm did it give?
The pest or weed control at 20 ppm was 90%.

For `CCc1[nH]c(-c2cc(Cl)cc(Cl)c2)nc1C(=O)NS(=O)(=O)c1ccccc1Cl` [Example 254], which pest or weed control at 20 ppm is on record?
Its pest or weed control at 20 ppm is 90%.

With `Cn1cc(C(=O)NS(=O)(=O)c2ccccc2Cl)nc1-c1cccs1` [Example 516] as the compound, how does the pest or weed control at 20 ppm read?
Its pest or weed control at 20 ppm is 90%.
